{"source": "patent US8759329B2", "about": "(Unimed Pharmaceuticals, LLC, priority 2005, dated 2014)", "origin": "cited, not measured here", "key": {"protein (SHBG, albumin) [1]": {"target": "protein (SHBG, albumin) (Homo sapiens, UniProt P02768)", "sequence (P02768 25-609)": "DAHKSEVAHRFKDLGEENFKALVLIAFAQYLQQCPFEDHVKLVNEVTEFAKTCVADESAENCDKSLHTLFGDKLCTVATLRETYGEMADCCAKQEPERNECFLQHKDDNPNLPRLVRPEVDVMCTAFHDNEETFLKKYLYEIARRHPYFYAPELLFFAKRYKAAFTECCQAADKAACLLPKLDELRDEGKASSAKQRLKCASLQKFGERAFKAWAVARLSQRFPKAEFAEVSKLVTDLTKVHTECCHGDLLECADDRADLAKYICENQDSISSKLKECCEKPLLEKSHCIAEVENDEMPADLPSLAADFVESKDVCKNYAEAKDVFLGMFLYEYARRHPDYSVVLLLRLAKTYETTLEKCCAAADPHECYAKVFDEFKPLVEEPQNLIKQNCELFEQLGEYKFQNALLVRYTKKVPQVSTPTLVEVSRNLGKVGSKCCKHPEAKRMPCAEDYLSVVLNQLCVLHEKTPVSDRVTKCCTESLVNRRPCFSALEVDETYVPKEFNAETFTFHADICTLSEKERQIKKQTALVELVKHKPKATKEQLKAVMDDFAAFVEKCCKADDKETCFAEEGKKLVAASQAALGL", "details": "in men"}, "protein (SHBG, albumin) [2]": {"target": "T1, protein (SHBG, albumin) (Homo sapiens, UniProt P04278)", "T1 sequence (P04278 30-402)": "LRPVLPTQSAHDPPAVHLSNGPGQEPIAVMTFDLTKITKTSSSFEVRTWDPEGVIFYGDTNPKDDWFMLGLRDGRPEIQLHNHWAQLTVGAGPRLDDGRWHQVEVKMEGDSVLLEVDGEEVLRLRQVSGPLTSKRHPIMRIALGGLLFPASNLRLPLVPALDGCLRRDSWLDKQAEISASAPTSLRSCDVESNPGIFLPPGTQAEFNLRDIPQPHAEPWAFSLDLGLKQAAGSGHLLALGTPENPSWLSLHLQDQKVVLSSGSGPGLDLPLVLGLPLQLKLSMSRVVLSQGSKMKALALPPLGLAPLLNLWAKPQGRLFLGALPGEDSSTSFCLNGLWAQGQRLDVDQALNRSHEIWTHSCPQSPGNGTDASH", "details": "in men"}, "protein (SHBG, albumin) [3]": {"test_system": "protein (SHBG, albumin)", "details": "circulating testosterone"}}, "data": [{"smiles": "C[C@]12CC[C@H]3[C@@H](CCC4=CC(=O)CC[C@@]43C)[C@@H]1CC[C@@H]2O", "note": "[testosterone]", "values": [{"measurement": "share bound weakly to albumin", "setting": "protein (SHBG, albumin) [1]", "value": 60, "unit": "%"}, {"measurement": "share of the binding to SHBG", "setting": "protein (SHBG, albumin) [2]", "value": "approximately 40%"}, {"measurement": "bound to protein in the blood", "setting": "protein (SHBG, albumin) [3]", "value": 98, "unit": "%"}]}]}
